Results from ChEMBL document CHEMBL5625167, “In vitro bioevaluation and docking study of dihydrosphingosine and ethambutol analogues against sensitive and multi-drug resistant Mycobacterium tuberculosis” (Eur J Med Chem, 2023).
Converted amounts (≈) assume the structure as drawn. “And” between values parts separate entries of the source, which are not always exact repeats. Identical values can stand only once. The source made the active and inactive calls. No cut-off for these calls is given here.

Columns and labels:
[1] = tested on: Mycobacterium tuberculosis; assay: (§1) Antimycobacterial activity against isoniazid, rifampicin, ethambutol and pyrazinamide sensitive Mycobacterium tuberculosis H37Rv ATCC 25618 assessed as inhibition of bacterial growth incubated for 7 days by resazurin dye based colorimetric method analysis; type: functional; settings: H37Rv ATCC 25618, 168 h, time 7 day
[2] = tested on: Mycobacterium tuberculosis; assay: as §1, with “Potency index, ratio of ethambutol MIC to test compound MIC for antimycobacterial” for “Antimycobacterial”; type: functional; settings: time 7 day
[3] = Cytotoxicity against African green monkey Vero cells assessed as reduction in cell population incubated for 48 hrs by MTT assay; type: toxicity, cell-based; settings: chlorocebus sabaeus
[4] = Cytotoxicity against mouse J774.A1 cells assessed as reduction in cell population incubated for 48 hrs by MTT assay; type: toxicity, cell-based
[5] = Cytotoxicity against human HepG2 cells assessed as reduction in cell population incubated for 48 hrs by MTT assay; type: toxicity, cell-based
[6] = tested on: Mycobacterium tuberculosis; assay: Antimycobacterial activity against Mycobacterium tuberculosis H37Rv ATCC 25618 assessed as fractional inhibitory concentration incubated for 7 days in presence of 2-aminoheptadecan-1-ol by resazurin dye based two-dimensional micro dilution checkerboard assay; type: functional; settings: time 7 day
[7] = tested on: Mycobacterium tuberculosis; assay: Antimycobacterial activity against Mycobacterium tuberculosis H37Rv ATCC 25618 incubated for 7 days by resazurin dye based two-dimensional micro dilution checkerboard assay in presence of 1-(benzyloxy)heptadecan-2-amine; type: functional; settings: time 7 day
[8] = tested on: Mycobacterium tuberculosis; assay: Antimycobacterial activity against Mycobacterium tuberculosis H37Rv ATCC 25618 incubated for 7 days by resazurin dye based two-dimensional micro dilution checkerboard assay in presence of 1-((3,4,5-trimethoxybenzyl)oxy)heptadecan-2-amine; type: functional; settings: time 7 day
[9] = tested on: Mycobacterium tuberculosis; assay: Antimycobacterial activity against Mycobacterium tuberculosis H37Rv ATCC 25618 assessed as induction of morphological changes by measuring extrusion of cytosolic material at MIC incubated for 96 hrs by TEM analysis; type: functional, organism-based
[10] = tested on: Mycobacterium tuberculosis; assay: Antimycobacterial activity against Mycobacterium tuberculosis H37Rv ATCC 25618 assessed as induction of morphological changes by measuring disruption and discontinuity of the bacterial envelope at MIC incubated for 96 hrs by TEM analysis; type: functional, organism-based
[11] = tested on: Mycobacterium tuberculosis; assay: Antimycobacterial activity against Mycobacterium tuberculosis H37Rv ATCC 25618 assessed as induction of morphological changes by measuring increase in lipid inclusions at MIC incubated for 96 hrs by TEM analysis; type: functional, organism-based
[12] = tested on: Mycolicibacterium smegmatis; assay: Antimycobacterial activity against Mycobacterium smegmatis ATCC607 incubated for 24 hrs by resazurin dye based broth microdilution method; type: functional
Staphylococcus aureus = assay: Antibacterial activity against Staphylococcus aureus ATCC 25923 incubated for 18 hrs by resazurin dye based broth microdilution method; type: functional
Klebsiella pneumoniae = assay: Antibacterial activity against Klebsiella pneumoniae ATCC 13883 incubated for 18 hrs by resazurin dye based broth microdilution method; type: functional
[13] = tested on: Mycobacterium tuberculosis; assay: Synergistic antimycobacterial activity against Mycobacterium tuberculosis H37Rv ATCC 25618 incubated for 7 days by resazurin dye based two-dimensional micro dilution checkerboard assay in presence of rifampicin; type: functional; settings: time 7 day
[14] = tested on: Mycobacterium tuberculosis; assay: Additive antimycobacterial activity against Mycobacterium tuberculosis H37Rv ATCC 25618 incubated for 7 days by resazurin dye based two-dimensional micro dilution checkerboard assay in presence of ethambutol; type: functional; settings: time 7 day
[15] = tested on: Mycobacterium tuberculosis; assay: Additive antimycobacterial activity against Mycobacterium tuberculosis H37Rv ATCC 25618 incubated for 7 days by resazurin dye based two-dimensional micro dilution checkerboard assay in presence of isoniazid; type: functional; settings: time 7 day
[16] = tested on: Mycobacterium tuberculosis; assay: Additive antimycobacterial activity against Mycobacterium tuberculosis H37Rv ATCC 25618 incubated for 7 days by resazurin dye based two-dimensional micro dilution checkerboard assay in presence of amikacin; type: functional; settings: time 7 day
[17] = tested on: Mycobacterium tuberculosis; assay: Additive antimycobacterial activity against Mycobacterium tuberculosis H37Rv ATCC 25618 incubated for 7 days by resazurin dye based two-dimensional micro dilution checkerboard assay in presence of levofloxacin; type: functional; settings: time 7 day
[18] = tested on: Mycobacterium tuberculosis; assay: Synergistic antimycobacterial activity against Mycobacterium tuberculosis H37Rv ATCC 25618 assessed as fractional inhibitory concentration index incubated for 7 days by resazurin dye based two-dimensional micro dilution checkerboard assay in presence of rifampicin; type: functional; settings: time 7 day
[19] = tested on: Mycobacterium tuberculosis; assay: Additive antimycobacterial activity against Mycobacterium tuberculosis H37Rv ATCC 25618 assessed as fractional inhibitory concentration index incubated for 7 days by resazurin dye based two-dimensional micro dilution checkerboard assay in presence of ethambutol; type: functional; settings: time 7 day
[20] = tested on: Mycobacterium tuberculosis; assay: Additive antimycobacterial activity against Mycobacterium tuberculosis H37Rv ATCC 25618 assessed as fractional inhibitory concentration index incubated for 7 days by resazurin dye based two-dimensional micro dilution checkerboard assay in presence of isoniazid; type: functional; settings: time 7 day
[21] = tested on: Mycobacterium tuberculosis; assay: Additive antimycobacterial activity against Mycobacterium tuberculosis H37Rv ATCC 25618 assessed as fractional inhibitory concentration index incubated for 7 days by resazurin dye based two-dimensional micro dilution checkerboard assay in presence of amikacin; type: functional; settings: time 7 day
[22] = tested on: Mycobacterium tuberculosis; assay: Additive antimycobacterial activity against Mycobacterium tuberculosis H37Rv ATCC 25618 assessed as fractional inhibitory concentration index incubated for 7 days by resazurin dye based two-dimensional micro dilution checkerboard assay in presence of levofloxacin; type: functional; settings: time 7 day
[23] = tested on: Mycobacterium tuberculosis; assay: Antimycobacterial activity against Mycobacterium tuberculosis H37Rv ATCC 25618 assessed as reduction in concentration required to inhibit bacterial growth incubated for 7 days by resazurin dye based two-dimensional micro dilution checkerboard assay in presence of rifampicin relative to control; type: functional; set-up: scale not given: the % may be the effect or the level left; settings: time 7 day
[24] = tested on: Mycolicibacterium smegmatis; assay: Antimycobacterial activity against Mycobacterium smegmatis ATCC607 assessed as reduction in bacterial viability at 16 uM incubated for 24 hrs by time kill assay relative to control; type: functional
[25] = tested on: Mycolicibacterium smegmatis; assay: Antimycobacterial activity against Mycobacterium smegmatis ATCC607 assessed as reduction in bacterial viability at 16 uM measured after 72 hrs by time kill assay in presence of rifampicin relative to control; type: functional
[26] = tested on: Mycolicibacterium smegmatis; assay: Antimycobacterial activity against Mycobacterium smegmatis ATCC607 infected in mouse J774 cells assessed as reduction in intracellular bacterial count at 32 uM measured after 6 hrs relative to control; type: functional; set-up: scale not given: the % may be the effect or the level left
[27] = tested on: Mycolicibacterium smegmatis; assay: Intracellular antimycobacterial activity against Mycobacterium smegmatis ATCC607 infected in mouse J774 cells assessed as reduction in bacterial count at 16 to 32 uM measured after 24 hrs; type: functional, organism-based; settings: dose 16-32 µM
[28] = tested on: Mycolicibacterium smegmatis; assay: Antimycobacterial activity against Mycobacterium smegmatis ATCC607 infected in mouse J774 cells assessed as reduction in intracellular bacterial count at 2 times MIC measured after 24 hrs relative to control; type: functional; set-up: scale not given: the % may be the effect or the level left
[29] = tested on: Mycolicibacterium smegmatis; assay: Antimycobacterial activity against Mycobacterium smegmatis ATCC607 infected in mouse J774 cells assessed as log reduction in intracellular bacterial count at 2 times MIC measured after 24 hrs relative to control; type: functional
[30] = tested on: Mycolicibacterium smegmatis; assay: Antimycobacterial activity against Mycobacterium smegmatis ATCC607 infected in mouse J774 cells assessed as reduction in intracellular bacterial count at MIC in presence of rifampicin measured for 24 hrs relative to control; type: functional; set-up: scale not given: the % may be the effect or the level left
[31] = tested on: Mycolicibacterium smegmatis; assay: Antimycobacterial activity against Mycobacterium smegmatis ATCC607 assessed as reduction in bacterial viability at 16 uM by time kill assay; type: functional, organism-based; settings: time 0-72 hrs, TDE = time-dependent effect
[32] = tested on: Mycolicibacterium smegmatis; assay: Antimycobacterial activity against Mycobacterium smegmatis ATCC607 infected in mouse J774 cells assessed as log reduction in intracellular bacterial count at MIC in presence of rifampicin measured for 24 hrs; type: functional
[33] = tested on: Mycobacterium tuberculosis; assay: Additive antimycobacterial activity against Mycobacterium tuberculosis H37Rv ATCC 25618 assessed as fractional inhibitory concentration index incubated for […] by micro dilution checkerboard assay in presence of rifampicin; type: functional
[34] = tested on: Mycobacterium tuberculosis; assay: Antimycobacterial activity against Mycobacterium tuberculosis H37Rv ATCC 25618 incubated for 7 days by resazurin dye based two-dimensional micro dilution checkerboard assay in presence of rifampicin; type: functional; settings: time 7 day
[35] = tested on: Mycobacterium tuberculosis; assay: Antimycobacterial activity against Mycobacterium tuberculosis H37Rv ATCC 25618 assessed as fractional inhibitory concentration index incubated for 7 days by resazurin dye based two-dimensional micro dilution checkerboard assay in presence of rifampicin; type: functional; settings: time 7 day

Row | Structure (SMILES) | MIC [1] | Ratio [2] | CC50 at 48 h [3] | CC50 at 48 h [4] | CC50 at 48 h [5] | FIC [6] | FIC [7] | FIC [8] | Activity [9] | MIC [12] | MIC (Staphylococcus aureus) | MIC (Klebsiella pneumoniae) | FIC [14] | FIC [15] | FIC [16] | FIC [17] | fractional inhibitory concentration index (FICI) [19] | fractional inhibitory concentration index (FICI) [20] | fractional inhibitory concentration index (FICI) [21] | fractional inhibitory concentration index (FICI) [22] | other results
1 | CC[C@@H](CO)NCCN[C@@H](CC)CO [ETHAMBUTOL] | 3.6 µM and 1 µg/mL | 100 | 641 µM | > 1440 µM | > 1440 µM | 0.125 | 0.5 | 0.5 | Active | – | – | – | – | – | – | – | – | – | – | – | Activity [10]: Active; Activity [11]: Active
2 | C[C@H]1COc2c(N3CCN(C)CC3)c(F)cc3c(=O)c(C(=O)O)cn1c23 [LEVOFLOXACIN ANHYDROUS] | 0.35 µM and 0.13 µg/mL | – | – | – | – | 0.031 | 0.5 | 0.5 | – | – | – | – | – | – | – | – | – | – | – | – | –
3 | CCCCCCCCCCCCCCCC(N)COCc1cc(OC)c(OC)c(OC)c1 (stereo unspecified) | 8 µM (≈ 3.61 µg/mL) | 45 | 17.7 µM | 120 µM | 149 µM | – | – | – | Active | 16 µM (≈ 7.23 µg/mL) | ≤ 4 µM | 512 µM (≈ 231 µg/mL) | 0.013 | 0.125 | 0.126 | 0.127 | 0.63 | 0.63 | 0.63 | 0.63 | FIC [13]: 0.25; fractional inhibitory concentration index (FICI) [18]: 0.5; Activity [23]: 75%; Activity [24]: 99.9%; Activity [25]: >99.9%; Activity [26]: 6.2%; Activity [27]: Active; Activity [28]: 33.3%; Activity [29]: 1.9 log10CFU/ml; Activity [30]: 12.2%; Activity [10]: Active; Activity [11]: Active; Activity [31]: Tde; Activity [32]: >1 log10CFU/ml
4 | CCCCCCCCCCCCCCCC(N)CO (stereo unspecified) | 1.52 µM (≈ 0.413 µg/mL) | 237 | 125 µM | 10.2 µM | 129 µM | – | – | – | – | 128 µM (≈ 34.8 µg/mL) | 16 µM (≈ 4.34 µg/mL) | 512 µM (≈ 139 µg/mL) | 0.5 | 0.25 | 0.5 | 0.5 | 0.63 | 0.75 | 0.56 | 0.53 | FIC [13]: 0.25; fractional inhibitory concentration index (FICI) [18]: 0.38; Activity [23]: 87.5%
5 | CCCCCCCCCCCCCCCC(N)COCc1ccccc1 (stereo unspecified) | 4.5 µM (≈ 1.63 µg/mL) | 80 | 42.2 µM | 5.94 µM | 99.2 µM | – | – | – | – | 16 µM (≈ 5.79 µg/mL) | 16 µM (≈ 5.79 µg/mL) | 128 µM (≈ 46.3 µg/mL) | 0.5 | 0.25 | 0.5 | 0.25 | 1 | 0.75 | 0.75 | 0.75 | Activity [24]: 24.56%; Activity [25]: >99.9%; fractional inhibitory concentration index (FICI) [33]: 0.56; FIC [34]: 0.5; fractional inhibitory concentration index (FICI) [35]: 0.56
